In patent publication US20240226228A1, “ANTIMICROBIAL PEPTOID HAVING IMPROVED SELECTIVITY AND ANTIMICROBIAL COMPOSITION COMPRISING SAME” (priority 2021, published 2024):
Values after ≈ are worked out from the molar mass of the structure shown. Where two headings read alike, the source gives them in different places. *1 amine or outer side, *2 acyl side, *3 side chain or, on linkers, in order; H or OH if unused. Where a SMILES comes first, the peptide text is derived from it. [ ]: non-standard residue; d: D form. Gly(N(CH2)2(3-indolyl)) = O=C(O)CNCCc1c[nH]c2ccccc12; Gly(N-CH2CH2-imidazol-4-yl) = O=C(O)CNCCc1c[nH]cn1; Nspe = C[C@H](NCC(=O)O)c1ccccc1; X1 = O=C(CN(CCCCO)[*:1])[*:2]; Nphe = O=C(O)CNCc1ccccc1; Nlys = NCCCCNCC(=O)O

Key:
red blood cells = assay: Hemolysis assay; format: cell-based, Sprague-Dawley mouse
Summary of the method: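 Peptoid is mixed with 10% (v/v) PBS-washed erythrocytes (male Sprague-Dawley […], 13 weeks) and held 1 h at 37 °C. Hemolysis is calculated from 540 nm absorbance of the supernatant, with PBS as 0% and Triton X-100 as 100%.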

E. coli ATCC25922 = test system: E. coli ATCC25922
Procedure: (§1) To measure the antimicrobial activity of the peptoids synthesized in Example 1, an E. coli ATCC25922 strain as gram-negative bacteria and an S. aureus KCTC25923 strain as gram-positive bacteris, were treated with the peptoids, followed by measuring the minimum inhibitory concentration (MIC). Peptoids 1 and 2 are antimicrobial peptoids known in the art, and used as controls for comparing antimicrobial activity with a novel peptoid.
(§2) Specifically, the S. aureus KCTC25923 or E. coli ATCC25922 strain was inoculated into a Mueller Hinton Broth (MHB2) liquid medium in which cations had been adjusted in the medium, cultured at 37° C. for 18 hours, subcultured, and then incubated for 4 hours. Afterward, for each bacterial strain, an optical density (OD, 0.001) was adjusted so that the bacterial count became 2×10^5 to 5×10^5 colony-forming units (CFU) per mL, which was then diluted with a MHB2 liquid medium containing 0.02% bovine serum albumin and 0.001% acetic acid, and dispensed at 100 μL into a 96-well microplate. Using sterile water, a peptoid stock 40 times stronger than a concentration to be tested was subjected to two-fold serial dilution and assessed at six different concentrations, and the maximum value of the peptoid concentrations was 25 μM. Subsequently, the plate was incubated at 37° C. for 24 hours. Afterward, optical density (OD) values at 600 nm were measured using a microplate reader (Bio-Rad).
(§3) Each MIC value was determined as the average value of a value obtained through three independent experiments.
(§4) Referring to Table 22, to measure the antimicrobial activity of the peptoids synthesized in Example 3, an MIC was measured by treating gram-negative bacteria, that is, the E. coli ATCC25922 strain, and gram-positive bacteria, that is, the S. aureus ATCC25923 strain, with the peptoids. Here, Peptoid 1 is a conventionally known antimicrobial peptoid, and Omiganan is a derivative of indolicidin, which is an antimicrobial peptide, under clinical development, and was used as a control for comparing antimicrobial activity with the novel peptoid.

S. aureus ATCC 25923 = test system: S. aureus ATCC 25923
Procedure: as §1, §2, §3, §4

[1] = Tables 11-13, 24 hours at 37° C., maximum concentration 25 μM

Row | Compound | MIC E. coli ATCC25922 (E. coli ATCC25922; ATCC25922) | MIC S. aureus ATCC 25923 (S. aureus ATCC 25923; ATCC 25923) | MIC S. aureus ATCC 25923 (S. aureus ATCC 25923; [1]) | also measured
1 | C[C@@H](c1ccccc1)N(CC(=O)N(CCCCN)CC(=O)N(CCc1c[nH]c2ccccc12)CC(=O)N(CCc1c[nH]c2ccccc12)CC(N)=O)C(=O)CN(CCCCN)C(=O)CN(CCCCN)C(=O)CN(Cc1ccccc1)C(=O)CN(Cc1ccccc1)C(=O)CN(CCCCN)C(=O)CN(C(=O)CN(C(=O)CNCCCCN)[C@@H](C)c1ccccc1)[C@@H](C)c1ccccc1 [Peptoid 40] (H-[Nlys][Nspe][Nspe][Nlys][Nphe][Nphe][Nlys][Nlys][Nspe][Nlys][Gly(N(CH2)2(3-indolyl))][Gly(N(CH2)2(3-indolyl))]-NH2) |  |  | 12.5 µM (≈ 23 µg/mL) | HC10 (red blood cells): >100/>100 μM; HC50 (red blood cells): >100/>100 μM; Hmax (100 μM) (red blood cells): 8.9 ± 0.2%; MIC E. coli ATCC25922 (E. coli ATCC25922; [1]): 12.5 µM (≈ 23 µg/mL)
2 | C[C@@H](c1ccccc1)N(CC(=O)N(CCCCO)CC(=O)N(CCc1c[nH]c2ccccc12)CC(=O)N(CCc1c[nH]c2ccccc12)CC(N)=O)C(=O)CN(CCCCO)C(=O)CN(CCCCO)C(=O)CN(C(=O)CN(C(=O)CN(CCCCO)C(=O)CN(C(=O)CN(C(=O)CNCCCCO)[C@@H](C)c1ccccc1)[C@@H](C)c1ccccc1)[C@@H](C)c1ccccc1)[C@@H](C)c1ccccc1 [Peptoid 66] |  |  | >25 µM | MIC E. coli ATCC25922 (E. coli ATCC25922; [1]): >25 µM
3 | C[C@@H](c1ccccc1)N(CC(=O)N(CCCCN)CC(=O)N(CC(=O)N(CC(=O)N(CCCCN)CC(=O)N(CC(=O)N(CC(=O)N(CCCCN)CC(=O)N(CCCCN)CC(N)=O)[C@@H](C)c1ccccc1)[C@@H](C)c1ccccc1)[C@@H](C)c1ccccc1)[C@@H](C)c1ccccc1)C(=O)CN(C(=O)CNCCCCN)[C@@H](C)c1ccccc1 [Peptoid 52] (H-[Nlys][Nspe][Nspe][Nlys][Nspe][Nspe][Nlys][Nspe][Nspe][Nlys][Nlys]-NH2) |  |  | >25 µM | 
4 | C[C@@H](c1ccccc1)N(CC(N)=O)C(=O)CN(CCCCN)C(=O)CN(C(=O)CN(C(=O)CN(CCCCN)C(=O)CN(C(=O)CN(C(=O)CN(CCCCN)C(=O)CN(C(=O)CN(CCCCN)C(=O)CNCCCCN)[C@@H](C)c1ccccc1)[C@@H](C)c1ccccc1)[C@@H](C)c1ccccc1)[C@@H](C)c1ccccc1)[C@@H](C)c1ccccc1 [Peptoid 49] |  |  | >25 µM | HC10 (red blood cells): >100/>100 μM; HC50 (red blood cells): >100/>100 μM; Hmax (100 μM) (red blood cells): 0.3 ± 0.3%
5 | NC(=O)CN(CCc1c[nH]c2ccccc12)C(=O)CN(CCc1c[nH]c2ccccc12)C(=O)CN(CCCCO)C(=O)CN(CCc1c[nH]c2ccccc12)C(=O)CN(CCc1c[nH]c2ccccc12)C(=O)CN(CCCCO)C(=O)CN(CCc1c[nH]c2ccccc12)C(=O)CN(CCc1c[nH]c2ccccc12)C(=O)CN(CCCCO)C(=O)CN(CCc1c[nH]c2ccccc12)C(=O)CN(CCc1c[nH]c2ccccc12)C(=O)CNCCCCO [Peptoid 65] (H-[X1][Gly(N(CH2)2(3-indolyl))][Gly(N(CH2)2(3-indolyl))][X1][Gly(N(CH2)2(3-indolyl))][Gly(N(CH2)2(3-indolyl))][X1][Gly(N(CH2)2(3-indolyl))][Gly(N(CH2)2(3-indolyl))][X1][Gly(N(CH2)2(3-indolyl))][Gly(N(CH2)2(3-indolyl))]-NH2) |  |  | >25 µM | MIC E. coli ATCC25922 (E. coli ATCC25922; [1]): >25 µM

Now from value to molecule, other results behind:

Row | MIC E. coli ATCC25922 (E. coli ATCC25922; ATCC25922) | MIC S. aureus ATCC 25923 (S. aureus ATCC 25923; ATCC 25923) | Compound | MIC S. aureus ATCC 25923 (S. aureus ATCC 25923; [1]) | also measured
6 | 6.3 µM (≈ 11.9 µg/mL) | 3.1 µM (≈ 5.85 µg/mL) | C[C@@H](c1ccccc1)N(CC(N)=O)C(=O)CN(CCCCN)C(=O)CN(CCCCN)C(=O)CN(C(=O)CN(C(=O)CN(CCc1c[nH]cn1)C(=O)CN(C(=O)CN(C(=O)CN(CCCCN)C(=O)CN(CCc1c[nH]c2ccccc12)C(=O)CN(CCc1c[nH]c2ccccc12)C(=O)CNCCCCN)[C@@H](C)c1ccccc1)[C@@H](C)c1ccccc1)[C@@H](C)c1ccccc1)[C@@H](C)c1ccccc1 [Peptoid 74] (H-[Nlys][Gly(N(CH2)2(3-indolyl))][Gly(N(CH2)2(3-indolyl))][Nlys][Nspe][Nspe][Gly(N-CH2CH2-imidazol-4-yl)][Nspe][Nspe][Nlys][Nlys][Nspe]-NH2) |  | HD10 (red blood cells): 81.7; HD50 (red blood cells): > 100.0; Hmax (100 μM) (red blood cells): 14.2 ± 0.3
7 | >25 µM | 25 µM (≈ 46.4 µg/mL) | C[C@@H](c1ccccc1)N(CC(N)=O)C(=O)CN(CCCCN)C(=O)CN(CCCCN)C(=O)CN(C(=O)CN(C(=O)CN(CCCCN)C(=O)CN(CCc1c[nH]cn1)C(=O)CN(C(=O)CN(CCCCN)C(=O)CN(CCc1c[nH]c2ccccc12)C(=O)CN(CCc1c[nH]c2ccccc12)C(=O)CNCCCCN)[C@@H](C)c1ccccc1)[C@@H](C)c1ccccc1)[C@@H](C)c1ccccc1 [Peptoid 68] (H-[Nlys][Gly(N(CH2)2(3-indolyl))][Gly(N(CH2)2(3-indolyl))][Nlys][Nspe][Gly(N-CH2CH2-imidazol-4-yl)][Nlys][Nspe][Nspe][Nlys][Nlys][Nspe]-NH2) |  | 
8 | >25 µM | >25 µM | C[C@@H](c1ccccc1)N(CC(=O)N(CCCCN)CC(=O)N(CC(=O)N(CC(=O)N(CCCCN)CC(=O)N(CCCCN)CC(=O)N(CCc1c[nH]cn1)CC(N)=O)[C@@H](C)c1ccccc1)[C@@H](C)c1ccccc1)C(=O)CN(C(=O)CN(CCCCN)C(=O)CN(CCc1c[nH]c2ccccc12)C(=O)CN(CCc1c[nH]c2ccccc12)C(=O)CNCCCCN)[C@@H](C)c1ccccc1 [Peptoid 71] (H-[Nlys][Gly(N(CH2)2(3-indolyl))][Gly(N(CH2)2(3-indolyl))][Nlys][Nspe][Nspe][Nlys][Nspe][Nspe][Nlys][Nlys][Gly(N-CH2CH2-imidazol-4-yl)]-NH2) |  | 
9 | 25 µM (≈ 46.4 µg/mL) | 25 µM (≈ 46.4 µg/mL) | C[C@@H](c1ccccc1)N(CC(N)=O)C(=O)CN(CCCCN)C(=O)CN(CCCCN)C(=O)CN(C(=O)CN(CCc1c[nH]cn1)C(=O)CN(CCCCN)C(=O)CN(C(=O)CN(C(=O)CN(CCCCN)C(=O)CN(CCc1c[nH]c2ccccc12)C(=O)CN(CCc1c[nH]c2ccccc12)C(=O)CNCCCCN)[C@@H](C)c1ccccc1)[C@@H](C)c1ccccc1)[C@@H](C)c1ccccc1 [Peptoid 69] (H-[Nlys][Gly(N(CH2)2(3-indolyl))][Gly(N(CH2)2(3-indolyl))][Nlys][Nspe][Nspe][Nlys][Gly(N-CH2CH2-imidazol-4-yl)][Nspe][Nlys][Nlys][Nspe]-NH2) |  | 
10 | >25 µM | >25 µM | C[C@@H](c1ccccc1)N(CC(N)=O)C(=O)CN(CCCCN)C(=O)CN(CCCCN)C(=O)CN(CCc1c[nH]cn1)C(=O)CN(C(=O)CN(CCCCN)C(=O)CN(C(=O)CN(C(=O)CN(CCCCN)C(=O)CN(CCc1c[nH]c2ccccc12)C(=O)CN(CCc1c[nH]c2ccccc12)C(=O)CNCCCCN)[C@@H](C)c1ccccc1)[C@@H](C)c1ccccc1)[C@@H](C)c1ccccc1 [Peptoid 70] (H-[Nlys][Gly(N(CH2)2(3-indolyl))][Gly(N(CH2)2(3-indolyl))][Nlys][Nspe][Nspe][Nlys][Nspe][Gly(N-CH2CH2-imidazol-4-yl)][Nlys][Nlys][Nspe]-NH2) |  | 
11 | >25 µM | 25 µM (≈ 46.4 µg/mL) | C[C@@H](c1ccccc1)N(CC(N)=O)C(=O)CN(CCCCN)C(=O)CN(CCCCN)C(=O)CN(C(=O)CN(C(=O)CN(CCCCN)C(=O)CN(C(=O)CN(CCc1c[nH]cn1)C(=O)CN(CCCCN)C(=O)CN(CCc1c[nH]c2ccccc12)C(=O)CN(CCc1c[nH]c2ccccc12)C(=O)CNCCCCN)[C@@H](C)c1ccccc1)[C@@H](C)c1ccccc1)[C@@H](C)c1ccccc1 [Peptoid 67] (H-[Nlys][Gly(N(CH2)2(3-indolyl))][Gly(N(CH2)2(3-indolyl))][Nlys][Gly(N-CH2CH2-imidazol-4-yl)][Nspe][Nlys][Nspe][Nspe][Nlys][Nlys][Nspe]-NH2) |  | 
